Earlier results as cited in patent US6399640B1, “Arylthiazolidinedione and aryloxazolidinedione derivatives” (Merck & Co., Inc., priority 1999, dated 2002).

Experiments:
ob/ob mice = settings: Cantello et al, J. Med. Chem. 1994
PPARγ = settings: subsequent studies; Willson et al, J. Med. Chem. 1996
diabetic mouse model = settings: Sohda et al, Chem. Pharm. Bull. 1982

SMILES | antihyperglycemic activity (ob/ob mice) | amounts required for PPARγ activation (PPARγ) | antihyperglycemic effect (diabetic mouse model)
CN(CCOc1ccc(C2SC(=O)NC2=O)cc1)c1nc2ccccc2o1 (stereo not drawn) [(1)] | no antihyperglycemic activity | relatively high amounts | –
O=C1NC(=O)C(c2ccc(OCCc3ccccc3)cc2)S1 (stereo not drawn) [(2), 5-[4-(phenylethoxy)phenyl]-2,4-thiazolidinedione] | – | – | no antihyperglycemic effect
